Results from ChEMBL document CHEMBL4507264, “Data for DCP probe BAY-7598” (2021).

Legend:
[1] = system: Epidermal growth factor receptor (Homo sapiens), P00533 [G719S]; conditions: Compound concentration 1000.0 nM
[2] = biological target: SNF-related serine/threonine-protein kinase (Homo sapiens) (UniProt Q9NRH2); conditions: Compound concentration 1000.0 nM
[3] = system: Mast/stem cell growth factor receptor Kit (Homo sapiens), P10721 [V559D]; conditions: Compound concentration 1000.0 nM
[4] = biological target: Serine/threonine-protein kinase N2 (Homo sapiens) (UniProt Q16513); conditions: Compound concentration 1000.0 nM
[5] = biological target: Macrophage colony-stimulating factor 1 receptor (Homo sapiens) (UniProt P07333); conditions: Compound concentration 1000.0 nM
Chain of Macrophage colony-stimulating factor 1 receptor (Homo sapiens) (P07333 whole entry): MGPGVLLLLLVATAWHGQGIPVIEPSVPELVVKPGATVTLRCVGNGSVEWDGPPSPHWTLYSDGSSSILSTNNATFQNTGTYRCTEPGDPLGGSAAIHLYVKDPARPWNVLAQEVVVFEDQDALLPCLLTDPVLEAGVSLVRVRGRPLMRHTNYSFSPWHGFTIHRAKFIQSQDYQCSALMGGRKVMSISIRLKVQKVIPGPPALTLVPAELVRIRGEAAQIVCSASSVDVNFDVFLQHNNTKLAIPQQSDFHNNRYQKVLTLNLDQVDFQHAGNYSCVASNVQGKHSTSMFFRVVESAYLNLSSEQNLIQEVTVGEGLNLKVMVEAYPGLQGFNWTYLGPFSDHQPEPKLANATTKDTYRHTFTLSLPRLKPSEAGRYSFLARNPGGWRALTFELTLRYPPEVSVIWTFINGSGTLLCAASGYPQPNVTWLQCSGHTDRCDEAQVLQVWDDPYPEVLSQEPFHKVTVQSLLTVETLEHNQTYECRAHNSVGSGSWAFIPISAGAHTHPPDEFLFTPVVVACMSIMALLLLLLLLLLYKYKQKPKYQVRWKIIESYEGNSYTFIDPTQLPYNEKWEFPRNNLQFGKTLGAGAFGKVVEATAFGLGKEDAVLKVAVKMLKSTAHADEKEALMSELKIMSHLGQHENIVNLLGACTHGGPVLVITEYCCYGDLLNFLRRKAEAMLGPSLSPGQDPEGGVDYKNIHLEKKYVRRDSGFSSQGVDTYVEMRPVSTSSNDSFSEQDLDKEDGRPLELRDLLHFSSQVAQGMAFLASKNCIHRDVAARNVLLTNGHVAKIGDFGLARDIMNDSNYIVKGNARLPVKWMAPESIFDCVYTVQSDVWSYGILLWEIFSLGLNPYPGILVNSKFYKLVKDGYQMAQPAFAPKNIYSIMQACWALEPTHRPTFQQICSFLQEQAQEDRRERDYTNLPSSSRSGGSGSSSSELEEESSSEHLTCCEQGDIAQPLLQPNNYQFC

[6] = biological target: Serine/threonine-protein kinase STK11 (Homo sapiens) (UniProt Q15831); conditions: Compound concentration 1000.0 nM
[7] = biological target: Serine/threonine-protein kinase Nek4 (Homo sapiens) (UniProt P51957); conditions: Compound concentration 1000.0 nM
[8] = biological target: Serine/threonine-protein kinase NLK (Homo sapiens) (UniProt Q9UBE8); conditions: Compound concentration 1000.0 nM
[9] = biological target: Phosphorylase b kinase regulatory subunit alpha, liver isoform (Homo sapiens) (UniProt P46019); conditions: Compound concentration 1000.0 nM
[10] = biological target: Rho-associated protein kinase 1 (Homo sapiens) (UniProt Q13464); conditions: Compound concentration 1000.0 nM
[11] = biological target: Casein kinase I isoform alpha (Homo sapiens) (UniProt P48729); conditions: Compound concentration 1000.0 nM
[12] = biological target: T1, Alpha-1D adrenergic receptor (Homo sapiens) (UniProt P25100); conditions: Compound concentration 10.0 uM
T1 sequence (whole entry): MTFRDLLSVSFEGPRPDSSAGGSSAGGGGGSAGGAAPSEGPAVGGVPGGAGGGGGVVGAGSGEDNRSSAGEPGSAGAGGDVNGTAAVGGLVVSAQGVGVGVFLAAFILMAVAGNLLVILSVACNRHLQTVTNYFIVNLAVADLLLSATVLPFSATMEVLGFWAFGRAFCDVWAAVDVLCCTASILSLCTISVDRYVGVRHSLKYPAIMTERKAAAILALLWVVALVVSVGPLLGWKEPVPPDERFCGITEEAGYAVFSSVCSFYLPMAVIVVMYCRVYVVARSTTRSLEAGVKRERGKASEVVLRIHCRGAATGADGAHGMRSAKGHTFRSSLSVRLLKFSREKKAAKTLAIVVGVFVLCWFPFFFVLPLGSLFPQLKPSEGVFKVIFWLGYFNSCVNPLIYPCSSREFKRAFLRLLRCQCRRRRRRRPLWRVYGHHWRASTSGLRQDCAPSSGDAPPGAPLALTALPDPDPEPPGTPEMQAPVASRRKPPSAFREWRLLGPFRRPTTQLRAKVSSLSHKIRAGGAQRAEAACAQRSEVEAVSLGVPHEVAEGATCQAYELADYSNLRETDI

[13] = biological target: Serine/threonine-protein kinase 33 (Homo sapiens) (UniProt Q9BYT3); conditions: Compound concentration 1000.0 nM
Chain of Serine/threonine-protein kinase 33 (Homo sapiens) (Q9BYT3 whole entry, looked up): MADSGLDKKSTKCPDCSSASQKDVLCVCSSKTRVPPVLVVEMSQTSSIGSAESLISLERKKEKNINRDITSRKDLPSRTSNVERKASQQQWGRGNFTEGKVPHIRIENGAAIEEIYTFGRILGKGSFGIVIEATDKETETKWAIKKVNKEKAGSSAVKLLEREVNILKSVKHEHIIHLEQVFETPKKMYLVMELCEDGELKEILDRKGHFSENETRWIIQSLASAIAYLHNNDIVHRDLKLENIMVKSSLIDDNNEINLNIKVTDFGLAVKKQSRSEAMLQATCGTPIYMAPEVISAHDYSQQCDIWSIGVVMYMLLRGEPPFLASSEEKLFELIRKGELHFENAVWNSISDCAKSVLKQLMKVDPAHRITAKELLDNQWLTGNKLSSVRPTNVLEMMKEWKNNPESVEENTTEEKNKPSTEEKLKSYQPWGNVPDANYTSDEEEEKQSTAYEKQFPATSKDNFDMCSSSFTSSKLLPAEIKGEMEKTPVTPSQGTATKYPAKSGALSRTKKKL

[14] = system: Tyrosine-protein kinase ABL1 (Homo sapiens), P00519 [F317L]; conditions: Compound concentration 1000.0 nM
[15] = biological target: Mitogen-activated protein kinase kinase kinase 7 (Homo sapiens) (UniProt O43318); conditions: Compound concentration 1000.0 nM
[16] = biological target: Mast/stem cell growth factor receptor Kit (Homo sapiens) (UniProt P10721); conditions: Compound concentration 1000.0 nM
Chain of Mast/stem cell growth factor receptor Kit (Homo sapiens) (P10721 whole entry): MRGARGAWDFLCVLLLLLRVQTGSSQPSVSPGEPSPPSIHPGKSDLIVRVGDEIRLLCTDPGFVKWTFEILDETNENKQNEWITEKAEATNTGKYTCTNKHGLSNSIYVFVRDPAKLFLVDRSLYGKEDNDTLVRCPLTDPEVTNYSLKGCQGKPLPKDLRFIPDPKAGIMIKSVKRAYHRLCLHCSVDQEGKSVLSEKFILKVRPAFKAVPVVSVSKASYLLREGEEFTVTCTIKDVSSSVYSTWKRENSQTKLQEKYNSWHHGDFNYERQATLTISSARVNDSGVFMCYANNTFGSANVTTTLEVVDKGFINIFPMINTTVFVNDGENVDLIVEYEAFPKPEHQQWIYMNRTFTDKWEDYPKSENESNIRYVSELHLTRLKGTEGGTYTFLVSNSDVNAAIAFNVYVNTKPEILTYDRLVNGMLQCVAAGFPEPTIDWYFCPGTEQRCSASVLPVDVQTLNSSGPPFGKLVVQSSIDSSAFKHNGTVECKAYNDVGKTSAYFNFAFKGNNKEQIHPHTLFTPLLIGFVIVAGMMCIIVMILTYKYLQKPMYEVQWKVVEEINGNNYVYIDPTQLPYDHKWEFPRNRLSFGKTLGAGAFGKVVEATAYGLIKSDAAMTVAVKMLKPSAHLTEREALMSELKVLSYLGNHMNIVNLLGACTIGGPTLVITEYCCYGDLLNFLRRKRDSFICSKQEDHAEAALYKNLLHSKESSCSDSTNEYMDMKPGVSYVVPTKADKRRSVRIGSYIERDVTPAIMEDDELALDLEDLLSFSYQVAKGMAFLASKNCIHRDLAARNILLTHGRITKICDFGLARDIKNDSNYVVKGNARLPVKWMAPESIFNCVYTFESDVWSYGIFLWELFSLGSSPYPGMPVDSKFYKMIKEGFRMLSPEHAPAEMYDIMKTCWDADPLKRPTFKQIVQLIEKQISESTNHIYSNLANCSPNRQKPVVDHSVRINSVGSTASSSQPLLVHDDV

[17] = system: Mast/stem cell growth factor receptor Kit (Homo sapiens), P10721 [D816V]; conditions: Compound concentration 1000.0 nM
Chain of Mast/stem cell growth factor receptor Kit (Homo sapiens), P10721 [D816V] (P10721 whole entry D816V): as the sequence (P10721 whole entry) above, with D816V counted along it

[18] = biological target: Serine/threonine-protein kinase 16 (Homo sapiens) (UniProt O75716); conditions: Compound concentration 1000.0 nM
Chain of Serine/threonine-protein kinase 16 (Homo sapiens) (O75716 whole entry): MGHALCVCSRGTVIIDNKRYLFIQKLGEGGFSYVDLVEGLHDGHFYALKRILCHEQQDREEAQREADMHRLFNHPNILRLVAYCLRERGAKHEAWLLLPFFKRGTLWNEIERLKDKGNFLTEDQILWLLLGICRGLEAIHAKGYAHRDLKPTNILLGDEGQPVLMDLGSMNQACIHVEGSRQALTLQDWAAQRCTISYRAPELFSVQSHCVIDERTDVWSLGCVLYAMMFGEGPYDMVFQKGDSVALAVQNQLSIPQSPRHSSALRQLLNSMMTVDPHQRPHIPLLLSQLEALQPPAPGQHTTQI

[19] = biological target: Proto-oncogene tyrosine-protein kinase Src (Homo sapiens) (UniProt P12931); conditions: Compound concentration 1000.0 nM
[20] = system: Receptor-type tyrosine-protein kinase FLT3 (Homo sapiens), P36888 [K663Q]; conditions: Compound concentration 1000.0 nM
[21] = biological target: Macrophage colony-stimulating factor 1 receptor (Homo sapiens) (UniProt P07333); conditions: Compound concentration 1000.0 nM; remark: listed apart in the source
[22] = biological target: Muscarinic acetylcholine receptor M3 (Homo sapiens) (UniProt P20309); conditions: Compound concentration 10.0 uM
[23] = biological target: Serine/threonine-protein kinase MRCK alpha (Homo sapiens) (UniProt Q5VT25); conditions: Compound concentration 1000.0 nM
Rattus norvegicus = species: Rattus norvegicus; conditions: Compound concentration 10.0 uM
[24] = biological target: Epithelial discoidin domain-containing receptor 1 (Homo sapiens) (UniProt Q08345); conditions: Compound concentration 1000.0 nM
[25] = system: Phosphatidylinositol 4,5-bisphosphate 3-kinase catalytic subunit alpha isoform (Homo sapiens), P42336 [M1043I]; conditions: Compound concentration 1000.0 nM
[26] = biological target: Mitogen-activated protein kinase kinase kinase 12 (Homo sapiens) (UniProt Q12852); conditions: Compound concentration 1000.0 nM
Chain of Mitogen-activated protein kinase kinase kinase 12 (Homo sapiens) (Q12852 whole entry): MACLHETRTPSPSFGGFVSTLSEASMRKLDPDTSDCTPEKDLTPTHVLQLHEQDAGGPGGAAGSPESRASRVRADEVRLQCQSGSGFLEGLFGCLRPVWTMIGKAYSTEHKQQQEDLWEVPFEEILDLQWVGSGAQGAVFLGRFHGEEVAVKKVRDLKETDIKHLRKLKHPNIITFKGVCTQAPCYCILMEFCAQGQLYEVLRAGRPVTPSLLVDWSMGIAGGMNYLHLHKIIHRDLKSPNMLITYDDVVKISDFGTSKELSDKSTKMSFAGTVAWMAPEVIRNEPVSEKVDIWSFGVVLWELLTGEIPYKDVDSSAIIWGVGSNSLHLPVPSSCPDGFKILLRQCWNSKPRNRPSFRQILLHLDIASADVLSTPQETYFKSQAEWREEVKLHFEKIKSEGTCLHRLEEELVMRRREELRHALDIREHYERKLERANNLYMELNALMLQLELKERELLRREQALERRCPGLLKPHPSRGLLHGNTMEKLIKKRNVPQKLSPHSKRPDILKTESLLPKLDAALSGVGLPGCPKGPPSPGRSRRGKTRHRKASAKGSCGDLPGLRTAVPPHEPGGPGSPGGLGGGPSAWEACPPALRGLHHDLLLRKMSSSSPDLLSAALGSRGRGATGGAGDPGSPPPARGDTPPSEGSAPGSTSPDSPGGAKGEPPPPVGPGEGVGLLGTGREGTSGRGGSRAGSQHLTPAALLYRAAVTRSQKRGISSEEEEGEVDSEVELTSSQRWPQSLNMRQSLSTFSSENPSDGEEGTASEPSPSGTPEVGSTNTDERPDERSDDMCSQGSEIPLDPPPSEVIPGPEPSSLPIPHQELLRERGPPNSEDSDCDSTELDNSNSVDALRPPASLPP

[27] = biological target: Serine/threonine-protein kinase Nek2 (Homo sapiens) (UniProt P51955); conditions: Compound concentration 1000.0 nM
[28] = biological target: Serine/threonine-protein kinase DCLK3 (Homo sapiens) (UniProt Q9C098); conditions: Compound concentration 1000.0 nM
[29] = biological target: Activin receptor type-1-like (Homo sapiens) (UniProt P37023); conditions: Compound concentration 1000.0 nM
[30] = biological target: Activin receptor type-1 (Homo sapiens) (UniProt Q04771); conditions: Compound concentration 1000.0 nM
[31] = system: Tyrosine-protein kinase ABL1 (Homo sapiens), P00519 [M351T]; conditions: Compound concentration 1000.0 nM
[32] = biological target: Mitogen-activated protein kinase 4 (Homo sapiens) (UniProt P31152); conditions: Compound concentration 1000.0 nM
[33] = biological target: Kappa-type opioid receptor (Homo sapiens) (UniProt P41145); conditions: Compound concentration 10.0 uM
[34] = biological target: Tyrosine-protein kinase JAK2 (Homo sapiens) (UniProt O60674); conditions: Compound concentration 1000.0 nM
Chain of Tyrosine-protein kinase JAK2 (Homo sapiens) (O60674 whole entry): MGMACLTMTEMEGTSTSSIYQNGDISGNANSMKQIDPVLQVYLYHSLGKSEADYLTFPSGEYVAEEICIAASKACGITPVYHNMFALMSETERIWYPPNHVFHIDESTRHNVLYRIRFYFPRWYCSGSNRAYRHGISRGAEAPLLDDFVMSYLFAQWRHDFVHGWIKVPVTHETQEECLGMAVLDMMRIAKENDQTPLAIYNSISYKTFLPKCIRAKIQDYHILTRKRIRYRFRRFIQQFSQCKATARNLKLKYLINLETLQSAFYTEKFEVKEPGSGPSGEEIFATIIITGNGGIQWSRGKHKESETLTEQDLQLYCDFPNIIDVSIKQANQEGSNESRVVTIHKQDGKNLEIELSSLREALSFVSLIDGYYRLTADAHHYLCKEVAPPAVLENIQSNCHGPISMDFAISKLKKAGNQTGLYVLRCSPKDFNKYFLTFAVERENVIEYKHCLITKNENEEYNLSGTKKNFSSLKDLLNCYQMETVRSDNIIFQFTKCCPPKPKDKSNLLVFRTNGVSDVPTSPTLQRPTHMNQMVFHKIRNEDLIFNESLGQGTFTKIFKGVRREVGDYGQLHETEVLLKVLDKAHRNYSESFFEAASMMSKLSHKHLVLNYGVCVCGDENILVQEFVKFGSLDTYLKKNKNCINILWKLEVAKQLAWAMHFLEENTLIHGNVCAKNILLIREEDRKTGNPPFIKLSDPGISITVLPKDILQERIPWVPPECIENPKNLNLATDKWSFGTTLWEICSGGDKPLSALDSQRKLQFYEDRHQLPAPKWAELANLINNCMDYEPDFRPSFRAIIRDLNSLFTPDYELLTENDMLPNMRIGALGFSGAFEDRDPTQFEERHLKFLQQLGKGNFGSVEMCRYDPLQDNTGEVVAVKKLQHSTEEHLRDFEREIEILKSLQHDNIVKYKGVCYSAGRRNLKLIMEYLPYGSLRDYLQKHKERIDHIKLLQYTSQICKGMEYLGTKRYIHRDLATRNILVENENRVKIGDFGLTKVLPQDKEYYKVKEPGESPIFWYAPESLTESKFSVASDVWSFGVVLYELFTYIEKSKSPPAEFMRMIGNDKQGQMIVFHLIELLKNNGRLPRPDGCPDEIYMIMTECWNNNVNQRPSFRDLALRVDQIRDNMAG

[35] = system: Hepatocyte growth factor receptor (Homo sapiens), P08581 [Y1235D]; conditions: Compound concentration 1000.0 nM
[36] = biological target: Tyrosine-protein kinase Blk (Homo sapiens) (UniProt P51451); conditions: Compound concentration 1000.0 nM
[37] = biological target: Inhibitor of nuclear factor kappa-B kinase subunit epsilon (Homo sapiens) (UniProt Q14164); conditions: Compound concentration 1000.0 nM

Chain of Mast/stem cell growth factor receptor Kit (Homo sapiens), P10721 [V559D] (P10721 whole entry V559D): as the sequence (P10721 whole entry) above, with V559D counted along it

O=C(O)[C@@H]1[C@@H](Cn2nnc3ccccc3c2=O)CC[C@H]1C(=O)c1ccc(OCCC2CCOCC2)cc1 [BAY-694]
inactive: residual activity [1] 88% | residual activity [2] 100% | residual activity [3] 100% | residual activity [4] 100% | residual activity [5] 100% | residual activity [6] 94% | residual activity [7] 56% | residual activity [8] 86% | residual activity [9] 100% | residual activity [10] 84% | residual activity [11] 97% | inhibition [12] 0.08% | residual activity [13] 69% | residual activity [14] 86% | residual activity [15] 86% | residual activity [16] 89% | residual activity [17] 98% | residual activity [18] 89% | residual activity [19] 89% | residual activity [20] 100% | residual activity [21] 94% | inhibition [22] 5.09% | residual activity [23] 91% | inhibition (Rattus norvegicus) 13.4% | residual activity [24] 100% | residual activity [25] 100% | residual activity [26] 98% | residual activity [27] 100% | residual activity [28] 100% | residual activity [29] 97% | residual activity [30] 100% | residual activity [31] 95% | residual activity [32] 100% | inhibition [33] 8.5% | residual activity [34] 74% | residual activity [35] 98% | residual activity [36] 95% | residual activity [37] 100%

O=C(O)[C@H]1[C@H](Cn2nnc3ccccc3c2=O)CC[C@@H]1C(=O)c1ccc(OCCC2CCOCC2)cc1 [BAY-7598]
inactive: residual activity [1] 87% | residual activity [2] 95% | residual activity [3] 100% | residual activity [4] 76% | residual activity [5] 81% | residual activity [6] 76% | residual activity [7] 84% | residual activity [8] 100% | residual activity [9] 100% | residual activity [10] 87% | residual activity [11] 82% | inhibition [12] 0.59% | residual activity [13] 98% | residual activity [14] 75% | residual activity [15] 100% | residual activity [16] 95% | residual activity [17] 97% | residual activity [18] 85% | residual activity [19] 89% | residual activity [20] 100% | residual activity [21] 100% | inhibition [22] -7.32% | residual activity [23] 100% | inhibition (Rattus norvegicus) 9.67% | residual activity [24] 100% | residual activity [25] 100% | residual activity [26] 88% | residual activity [27] 100% | residual activity [28] 98% | residual activity [29] 85% | residual activity [30] 100% | residual activity [31] 82% | residual activity [32] 82% | inhibition [33] -3.04% | residual activity [34] 75% | residual activity [35] 100% | residual activity [36] 100% | residual activity [37] 90%
